# Reference: patent publication US11321826B2, “High throughput method for accurate prediction of compound-induced liver injury” (AGENCY FOR SCIENCE, TECHNOLOGY AND RESEARCH, priority 2016, dated 2022)
# Where two headings read alike, the source gives them in different places. Where a SMILES comes first, the peptide text is derived from it.
# Legend:
# hepatocytes in vivo = details: cited from earlier work
# HepaRG cells = test: High-content imaging of HepaRG cells after fluorescent staining of RELA and nuclear DNA; details: 16 h treatment; puromycin 100 μg/mL, acarbose 1000 μg/mL, tetracycline 1000 μg/mL, ethylene glycol 100 μg/mL, lithium chloride 1000 μg/mL; FIG. 3
# Description: The HepG2 cells were cultured in T75 Corning Costar flasks with Dulbecco's modified eagle medium (DMEM) supplemented with 10% fetal bovine serum (FBS) and 1% penicillin-streptomycin. The HepG2 cells were seeded into 384-well black plates with transparent bottom (#781091; Greiner, Kremsmuenster, Austria) at a density of 10.000 cells/cm^2. The HepG2 cells were cultured for three days to attain confluency before overnight compound treatment of sixteen hours. The HepaRG cells were directly seeded at a density of 250.000 cells/cm^2 into 384-well black plates with transparent bottom (#781091; Greiner) coated with 100 μg/mL collagen I. For the first twenty-four hours of cultivation a Williams E medium, supplemented with HepaRG Thaw, Plate & General Purpose medium was used. […]
# Screening was performed by using a dose-range of the following seven concentrations for each compound: 2 μM, 15 μM, 63 μM, 125 μM, 250 μM, 500 μM and 1 mM. […] Z′ values of each plate were calculated and values were all above 0.5, ranging from 0.62 to 0.89.
# Cells were fixed for six hours with 3.7% formaldehyde in phosphate-buffered saline (PBS) after sixteen hours of compound exposure. […] F-actin was detected on every plate with rhodamine phalloidin (#R415; 1:100; Invitrogen, Singapore). […]
# [1] = system: other organs than the liver; details: in vivo; cited from earlier work
# [2] = classification based on literature on compound-induced clinical effects in humans
Compound,toxicity for hepatocytes in vivo (hepatocytes in vivo; [2]),also measured
COC(=O)[C@H](Cc1ccccc1)NC(=O)[C@@H](N)CC(=O)O [Aspartame] (H-Asp-Phe-OMe),not toxic,–
Cn1cnc([N+](=O)[O-])c1Sc1ncnc2nc[nH]c12 [Azathioprine],toxic,–
[Cl][Cd][Cl] [Cadmium Chloride],toxic,–
Cn1c(=O)c2c(ncn2C)n(C)c1=O [Caffeine],not toxic,–
"OCCO [Ethylene glycol, ethylene glycol]",–,phenotypic changes / altered distribution of RELA (NF-κB p65) in HepaRG cells versus vehicle control (HepaRG cells): did not induce obvious phenotypic changes; toxicity in humans for other organs than the liver [1]: nephrotoxic and neurotoxic
CN1CCCC1c1cccnc1 (centres unmarked) [Nicotine],–,"toxicity for hepatocytes in vivo (hepatocytes in vivo; human, in vivo): not toxic"
"COc1ccc(C[C@H](N)C(=O)N[C@H]2[C@@H](O)[C@H](n3cnc4c(N(C)C)ncnc43)O[C@@H]2CO)cc1 [Puromycin, puromycin]",toxic,–
C[C@H]1O[C@H](O[C@H]2[C@H](O)[C@@H](O)[C@@H](O[C@H]3[C@H](O)[C@@H](O)C(O)O[C@@H]3CO)O[C@@H]2CO)[C@H](O)[C@@H](O)[C@@H]1N[C@H]1C=C(CO)[C@@H](O)[C@H](O)[C@H]1O (some centres unmarked) [acarbose],toxic for hepatocytes in vivo,–
[Cl-].[Li+] [lithium chloride],–,toxicity in humans for other organs than the liver [1]: nephrotoxic
CN(C)[C@@H]1C(O)=C(C(N)=O)C(=O)[C@@]2(O)C(O)=C3C(=O)c4c(O)cccc4[C@@](C)(O)[C@H]3C[C@@H]12 [tetracycline],toxic for hepatocytes in vivo,–
